# According to a melting point compilation (Tetko et al.; mined from patent text by program, amines drawn as free bases though some values may be those of a salt):
row,Compound,melting point [°C]
1,C=CCc1c2c(cc3c(=O)cc(C(=O)OCC)oc13)CCCC2,98 to 101
2,COC(=O)c1ccc(OC(F)(F)F)c(O)c1,95 to 97
3,CCN(CC)C(=O)c1cc(OC)cc(OC)c1-c1ccccc1,117 to 118
4,CCCOc1ccc(S(=O)(=O)NCc2ccncc2)cc1-c1nc2cc(N)c(N)cc2c(=O)[nH]1,157 to 160
5,COc1cc(F)ccc1C(C)(C)CC#N,80 to 83
6,Cc1c(N2CCCCC2)ccnc1CSc1nc2cc(N3CCCCC3)c(F)cc2[nH]1,161 to 162
7,COC(=O)c1sc2cc(OCc3cccnc3)ccc2c1Cl,148 to 150
8,C=CCN(c1ncnc2c1ncn2CCCCCCCCC(=O)O)C1CCCCC1,100 to 102
9,CC(Oc1ccc(Oc2cnc3cc(Cl)ccc3n2)cc1F)C(=O)O (stereo unspecified),132 to 138
10,CN1CCc2nc3cc(Cl)ccc3c(Oc3ccccc3)c2C1,138 to 139
11,O=C(NC1CCCNC1)c1ccc2[nH]ncc2c1 (stereo unspecified),265 to 266
12,CCC(CC)(CC(=O)Nc1cccc(OCc2ccc3ccc(C(C)=O)cc3n2)c1)C(=O)O,164
13,Cc1cc(N(C)C)nc(N)n1,172 to 174
14,CCN1C(=O)c2cccnc2N(CC)c2ccccc21,108 to 110
15,ON=Cc1cn2c(cnc3ccccc32)n1,243 to 245
16,COC(=O)c1ccc(C)c(C2=NC(C)(C(C)C)C(=O)N2)c1Cl (stereo unspecified),181 to 183
17,O=Cc1cnc(Oc2ccccc2)s1,50
18,Cc1cc(-c2ccc(C(F)(F)F)cc2)nc(-n2cnc(-c3ccc(S(N)(=O)=O)s3)c2)n1,277
19,COC(=O)c1cc(Cl)c2nc(C)cn2c1N,188 to 191
20,CCC(C)c1ccc(-n2c(-c3cc(C)c(OCCO)c(C)c3)nc3cc(F)ccc3c2=O)cc1 (stereo unspecified),53.9 to 54.4
21,CCCCOc1nc(N)c2[nH]c(=O)n(CCN(C)Cc3cccc(CC(=O)O)c3)c2n1,164 to 166
22,COc1cc(CCCC2SC(=O)NC2=O)cc(OC)c1OCc1coc(/C=C/c2ccccc2)n1 (stereo unspecified),163 to 164
23,CCOC(=O)C1=C(N)NC2=C(C(=O)CCC2)C1c1cccc(Cl)c1 (stereo unspecified),266
24,CC(=O)c1c(O)cccc1OCC(O)COc1ccc(Cl)cc1 (stereo unspecified),112 to 114
25,COc1ccc(COC(=O)CNC=S)cc1,107 to 108
26,Cc1ccc(C)n1N(C)c1ccc(N2CCOCC2)nn1,119 to 122

row,Compound,melting point [°C]
1,CC1(C)CCOCN1C(=O)C(Cl)Cl,105 to 106
2,CN(CCc1ccccn1)C(=O)CCSc1cc(C(C)(C)C)c(O)c(C(C)(C)C)c1,82 to 84
3,Cn1ncc(C(=O)N2CCCC2)c1C(=O)Nc1ccc2nc(-c3ccccc3)nn2c1,210
4,Cc1ncc2n1-c1ccc(Cl)cc1C(c1ccccc1F)=NC2O (stereo unspecified),185 to 186
5,O=C(Nc1ccccc1C(=O)O)C(=Cc1ccccc1)C(=O)Nc1ccccc1C(=O)O,247 to 249
6,CN1Cc2c(-c3noc(CNC4CC4)n3)ncn2-c2ccc(F)cc2C1=O,176 to 178
7,Cc1cc(N2N=C(c3ccc([N+](=O)[O-])cc3)c3cc4c(cc3CC2C)OCO4)on1 (stereo unspecified),179 to 182
8,C=C(C)COc1c(C)c(CCC(O)CC(=O)CC(=O)OCC)c2c(c1C)CC(C)(C)O2 (stereo unspecified),53.5 to 55
9,CCc1ccc(-c2cc3ncnc(Nc4ccc5[nH]ccc5c4)c3s2)cc1,171 to 182
10,CC(C)(C(=O)C=Cc1ccc(F)cc1)C1OCCO1,76
11,CCOCc1nc2c(N)nc3cc(Br)ccc3c2s1,201 to 204
12,CCCOc1cc(C(=O)CCC(=O)O)ccc1OCC,116 to 117
13,CCN(CC)CCOc1cccc2c1c1cc(F)ccc1n2Cc1ccc(F)cc1,75 to 76
14,CCOc1ccc(-c2nc(-c3ccc(O)c(C(=O)O)n3)cs2)cc1OCC,161 to 162
15,CCCCCCCC(=O)CCCCCC(=O)N[C@@H](C)C(=O)O,84 to 86
16,CCCNC(=S)NS(=O)(=O)c1cc2c(cc1OC)OCCC2CNC(=O)N1CC(C)=C(CC)C1=O (stereo unspecified),96 to 98
17,CN(Cc1ccc(NC(=O)C2=Cc3cc(-c4ccc(Cl)cc4)ccc3OCC2)cc1)C1CCOCC1,191 to 192
18,CCOC(=O)c1cc(NCc2ccccc2)c(Nc2cccc(C(F)(F)F)c2)c(S(N)(=O)=O)c1,189 to 190
19,CCOC(=O)C1Cc2cc(Cl)ccc2NC1=O (stereo unspecified),173 to 175
20,CN1CC2c3ccccc3Cc3ncccc3N2C1 (stereo unspecified),127 to 129
21,O=c1[nH]c2ccc(Cl)cc2n2ccnc12,> 300
22,CCOC(=O)Nc1ccc2sc(C)cc(=O)c2c1,219 to 220
23,O=C1CCc2c(-c3ccncc3)sc(-c3ccc(C(F)(F)F)cc3)c21,158 to 160
24,CCCCc1oc2ccccc2c1C(=O)Nc1ccc2cc(OCC(=O)OC)ccc2c1,131 to 133
25,O=C(NCCO)C(F)(OC(F)(F)C(F)(F)C(F)(F)F)C(F)(F)F (stereo unspecified),69 to 72
26,COc1ccc(CNc2nc(Cl)ccc2C=O)cc1Cl,134 to 138

row,Compound,melting point [°C]
1,CC(=O)Nc1ccc(-c2ccccc2C#N)cc1C,135 to 143
2,COc1ccc(S(=O)(=O)N2CCC[C@H]2C(=O)N2CCN(C(=O)c3ccc(C=NN)cc3)CC2)c(OC)c1COc1cccc2c(C)cc(C)nc12,136
3,N#CC(Cc1ccccc1Cl)C(=O)O (stereo unspecified),132 to 134
4,COc1ccc(CN2CCC(c3cn(Cc4ccoc4)c4cc(F)ccc34)CC2)cc1C(=O)O,228 to 229
5,O=Cc1coc(C(O)c2ccc(Br)cc2)c1 (stereo unspecified),83 to 84
6,COc1ccc(N(C)c2nc(N)nc3[nH]c4cccc(Cl)c4c23)cc1,163 to 164
7,CCCCC1N=c2ccc(OCC)c(C(=O)OCC)c2=NC1=O (stereo unspecified),168 to 169
8,CCOCc1nc2c(N)nc3ccccc3c2n1CC(C)(C)OCCS(C)(=O)=O,183 to 185
9,Cc1ccc(C(=O)CCN(C)Cc2cccc3ccccc23)cc1,92 to 95
10,COc1cc([C@H]2C(C#N)=C(N)Oc3c2ccc(NC(=O)CN(C)C(=O)OC2c4ccccc4-c4ccccc42)c3N)cc(Br)c1OC,128 to 130
11,Cc1[nH]c(=O)c(C#N)c2c1CC(c1cccnc1)CC2 (stereo unspecified),> 300
12,COc1ccc2c(c1)C(C(=O)N(Cc1ccc(N(C)C)cc1)c1ccc(C(C)C)cc1)CCO2 (stereo unspecified),82 to 84
13,O=c1c2ncn(C3OC(COC(c4ccccc4)(c4ccccc4)c4ccccc4)C(O)C3O)c2ncn1Cc1ccccc1 (stereo unspecified),208 to 209
14,CC(C)n1nc(-c2sc(C(N)=S)nc2-c2ccccc2)ccc1=O,> 250
15,CC1(C)COC1(Cn1cncn1)c1ccc(F)cc1 (stereo unspecified),110
16,CCOC(=O)C1=CC(C(=O)c2ccccc2O)=CN2CCc3c([nH]c4ccc(OC)cc34)C12C(=O)OCC (stereo unspecified),212
17,[N-]=[N+]=NC1(CO)OC(n2ccc(=O)[nH]c2=O)C(O)C1O (stereo unspecified),86 to 93
18,CC1CN(C(=O)CO)C(C)(C)O1 (stereo unspecified),50 to 53
19,O=C(O)c1nc(C(Cl)(Cl)Cl)n(-c2cccc(C(F)(F)F)c2)n1,126
20,COC(=O)c1c(C(=O)OC)c(-c2ccc(OC)c(OC)c2)c2sccc2c1O,147 to 148
21,Cc1cccc(NC(=O)NC2N=C(c3ccccc3)c3ccccc3N(C)C2=O)c1 (stereo unspecified),207 to 209
22,CCCCCCCCCOc1ncc(-c2ccc(O)cc2)cn1,89 to 90
23,CCOC(=O)c1sc(Oc2ccc(OCc3ccc4ccccc4n3)cc2)c2c1CCc1cnn(C)c1-2,269 to 270
24,COc1ccc(-c2c(C(=O)c3ccccc3)c(CBr)nc3cc(OC)c(OC)cc23)cc1OC,182 to 183
25,CC(=O)COc1ccc(CC2SC(=O)NC2=O)cc1 (stereo unspecified),158 to 159
26,O=S(=O)(Cl)c1ccc2oc3cc(Br)ccc3c2c1,191 to 193

row,Compound,melting point [°C]
1,CCOc1c(Br)ccc(C(=O)CC(=O)C2CC2)c1N(C)S(C)(=O)=O,120 to 122
2,COc1ccc(-c2nc(C)c(Cl)[nH]2)cc1,182 to 186
3,O=C(O)C(=O)CC(=O)c1cn(Cc2ccccc2F)c2ccccc2c1=O,172 to 174
4,Cc1cc(C)c(Nc2nc(C)ncc2S(=O)(=O)c2ccc(O)cc2)c(C)c1,246 to 248
5,CC(=O)Nc1cc(-n2c(=O)cc(C(F)(F)F)n(C)c2=O)c(F)cc1Cl,257 to 258
6,CC(C)(C)c1cc(C[Si](C)(C)C)cc(C(C)(C)C)c1S,100 to 101
7,Cc1cc(Br)c(N)cc1Cl,90
8,COc1cc2c(cc1O)CCCN(Cc1ccccc1OC)C2,136 to 137
9,COC(=O)CCC(=O)c1ccc2c(c1)CC(CNC(C)=O)C2 (stereo unspecified),139 to 140
10,O=CN(O)C(CN1CCOCC1)CS(=O)(=O)c1ccccc1Oc1ccc(OC(F)(F)F)cc1 (stereo unspecified),161 to 163
11,FC(F)(F)c1ccc2sc(=Nc3ccccc3)sc2c1,122 to 123
12,CC(c1oc2ccccc2c(=O)c1-c1cccc(F)c1)n1nc(-c2ccc3[nH]ccc3c2)c2c(N)ncnc21 (stereo unspecified),197 to 199
13,COc1ccc(Cn2c(=S)[nH]c(=S)c3[nH]cnc32)cc1OC1CCCC1,215 to 218
14,CC(C)(C)OC(=O)C(C#N)=C(NCCCN1CCCCCC1=O)Nc1cc(C(F)(F)F)cc(C(F)(F)F)c1,167 to 168
15,O=S(=O)(c1ccccc1)c1n[nH]c2ccccc12,118
16,CC(C)(C)c1cc(OCc2ccccc2-c2nnn[nH]2)cc(C(C)(C)C)c1O,149 to 150
17,Cc1ccc(N2C(=O)c3ccccc3C2O)nn1 (stereo unspecified),232
18,Cc1cc(=O)c2c(o1)CCOC2,107 to 110
19,CN1Cc2c(Cl)ncn2-c2cccnc2C1=O,247 to 248
20,O=c1[nH]c2cc(Cl)cc(OCCNCc3ccsc3)c2[nH]1,> 250
21,C=C(c1ccc(OC)cc1)c1cc(C(=C)c2ccc(OC)cc2)cc(C(=C)c2ccc(OC)cc2)c1,116 to 118
22,O=C(O)CCn1[nH]c(=O)c2ccccc2c1=O,201 to 203
23,N#CC1=C(Nc2ccc(Cl)cc2[N+](=O)[O-])CSC1,154 to 155
